Series [1] deals with benzodiazepine site of the GABA-A receptor. As to the kind of experiment: Benzodiazepine receptor binding assay (inhibition of 3H-flunitrazepam binding to membranes). Conditions: inhibition of 3H-flunitrazepam (ca. 3 nM) binding; over 10,000 = not active.
For series [2], the system named is behavior suppressed by punishment (conflict). As to the kind of experiment: Suppression of anxiety in the adult male rat (Vogel conflict test). The series is classed as in vivo, Male rats. The settings on record: PO (oral) administration, MED >10 = active dose not determined, read-out: Conf. PO (minimum effective dose, MED). The protocol: Assay to Measure the Suppression of Anxiety in the Adult Male Rat
The anxiolytic activity of selected compounds of the invention was assessed by determining their ability to release (disinhibit) behavior that had been suppressed by punishment (Vogel, J. R. et al. Psychopharmacology 1971, 21, 1). Male rats were deprived of water for 48 hrs and were deprived of food for 24 hrs prior to testing. After the first 24 hours of water deprivation, they were placed in the conflict chamber for a training period; wherein, they were allowed 200 unpunished licks from a bottle containing tap water. The experiment was run the next day. At the expected time of peak activity, the animals were placed in the chamber and allowed access to tap water. […] Their first lick initiates a 3-min test session. Subsequently, every 20th lick was punished by a 0.2-s shock delivered via the stainless-steel drinking-tube. Vehicle-treated control animals generally were willing to accept a median number of 3 to 8 shocks per test session. […] The Wilcoxon rank-sum test (Mann-Whitney U-test) was used to test for an increase (p<0.05, 1-tailed) in the median number of shocks in drug-treated groups, compared to a concurrently run vehicle-treated group. The biological assay is considered to be valid if the effects of a known anxiolytic (positive control) are detected, within the same experiment. A compound was considered active if there is a significant difference in the median number of shocks tolerated between the drug-treated group and the control group. The minimum effective doses (MED) for the active compounds of the invention are listed in Table 1 under the heading Conf., with PO indicating an oral route of administration. The MED was defined as the minimum dose of the drug-treatment as analyzed using the Wilcoxon rank-sum test (SAS; Statistical Analysis System, version 5.16). If the MED value is greater than 10, an active dose of the compound being tested had not been determined.

Series [3] relates to metrazol-induced clonic convulsions. Kind of series: Suppression of metrazol-induced convulsions in adult male mice. The series is classed as in vivo, Male CD1 mice. The settings on record: Mus musculus, block of clonic convulsions after s.c. CD90 dose of metrazol. As to the method: Assay to Determine the Suppression of Metrazol-Induced Convulsions in Adult Male Mice
Compounds of the invention were tested for their ability to reduce metrazol-induced convulsions in mice (Swinyard, E. A. J. Am. Pharm Assoc. 1949, 38, 201). Male CD1 mice, were fasted at least 16 hours, were divided into equal groups and test compounds or vehicle were administered parenterally. Water was not withheld except during the period of observations. At the time of suspected peak activity, anti-pentylenetetrazol (anti-metrazol) activity was evaluated by the subcutaneous administration of the CD90 dose of metrazol (the dose of metrazol was determined from the dose-response curve producing clonic convulsions in 90% of animals that received the corresponding vehicle for this experiment). Metrazol was dissolved in 0.9% sodium chloride solution, and its dose volume was 10 mL/kg. Animals were housed individually for observation of clonic convulsions, tonic convulsions and death for a period of 30 min. Test compounds that blocked the clonic seizure component of the convulsion in at least 50% of the animals were considered active. The biological assay was considered to be valid if the effects of a known anticonvulsant (positive control) were detected, within the same experiment. Activity was reported as percent reduction of clonic convulsions from the vehicle group. The ED50 values of active compounds were calculated by the method of probits (Finney, D. J. Probit Analysis, London: 1971, Cambridge University Press) and are listed in Table 1. […] Compounds active in this screen are considered active anticonvulsion/antiepileptic agents, as well as having potential anxiolytic activity. The data for the test compounds is listed in Table 1 as Met. for either PO (oral) or IP (parenteral) routes of administration.

[4] abbreviates: PO (oral) administration, read-out: Met. PO (ED50).
[5] abbreviates: IP (parenteral) administration, read-out: Met. IP (ED50).

Structures can show the parent of a compound that is named as a salt. Where two headings read alike, the source gives them in different places.

By IC50 is commonly meant the concentration needed to halve the response being measured. Low values mean higher potency, high ones lower potency. Compound `CN1C2=C(C(=O)Nc3ccccc3F)C(=O)CCN2c2cccc(N3CCOCC3)c21` [Compound 12] showed an IC50 in series [1] of 0.15 nM.

`O=C1CCN(c2cccc3c2NC2=C(C(=O)Nc4ccccc4F)C(=O)CCN23)CC1` [Compound 23]: the minimal effective dose in series [2] is at most 3 mg/kg.

For the compound `COc1ccc(NC(=O)C2=C3Nc4c(N5CCOCC5)cccc4N3CCC2=O)cc1` [Compound 7], the minimal effective dose in series [2] turned out to be 0.1 mg/kg. This compound also registered an IC50 in series [1] of 2.04 nM.

In the case of `CN1C2=C(C(=O)Nc3nccs3)C(=O)CCN2c2cccc(-n3ccnc3)c21` [Compound 16], the minimal effective dose in series [2] is over 3 mg/kg. Also, in series [1], the IC50 amounted to 2.12 nM.

For `CN1C2=C(C(=O)Nc3ccccc3F)C(=O)CCN2c2cccc(-n3ccnc3)c21` [Compound 13, Pyrido[1,2-a]benzimidazole-4-carboxamide, N-2-fluorophenyl-1,2,3-trihydro-3-oxo5-methyl-6-(1-imidazolyl)-], the minimal effective dose in series [2] was over 3 mg/kg. Also, in series [1], the IC50 came to 0.13 nM.

In general, melting point refers to the temperature, or range, at which the solid turns liquid. In the case of `O=C1CCN2C(=C1C(=O)Nc1c(F)cccc1F)Nc1c(N3CCCCC3)cccc12` (as salt: hydrochloride) [Compound 10, Pyrido[1,2-a]benzimidazole-4-carboxamide, N-(2,6-difluorophenyl)-1,2,3,5-tetrahydro-3-oxo-6-(1-piperidinyl)-], the melting point is 240 to 241 °C.

What is called ED50 is the dose that gives a 50% effect, or the effect in half of the subjects. With `O=C1CCN2C(=C1C(=O)Nc1c(F)cccc1F)Nc1c(N3CCCCC3)cccc12` [Compound 10, Pyrido[1,2-a]benzimidazole-4-carboxamide, N-(2,6-difluorophenyl)-1,2,3,5-tetrahydro-3-oxo-6-(1-piperidinyl)-], the ED50 in series [3] (setting [4]) came out at 3.64 mg/kg. For the same compound, the minimal effective dose in series [2] came to 3 mg/kg. In addition, the IC50 in series [1] turned out to be 0.41 nM.

In the case of `CN1C2=C(C(=O)Nc3ccccc3F)C(=O)CCN2c2cccc(N3CCCCC3)c21` [Compound 18], the ED50 in series [3] (setting [4]) worked out at 0.65 mg/kg. Further, in series [2], the minimal effective dose is 0.03 to 0.1 mg/kg. The IC50 in series [1] came to 0.22 nM.

In the case of `COc1ccc(NC(=O)C2=C3Nc4c(N5CCCCC5)cccc4N3CCC2=O)cc1` [Compound 11], the minimal effective dose in series [2] is over 3 mg/kg. The compound further registered an IC50 in series [1] of 34.8 nM.

Regarding `COCC(=O)N1CCN(c2cccc3c2N(C)C2=C(C(=O)Nc4ccccc4F)C(=O)CCN23)CC1` [Compound 22, Pyrido[1,2-a]benzimidazole-4-carboxamide, N-2-fluorophenyl-1,2,3-trihydro-3-oxo-5-methyl-6-[4-(2-methoxyacetyl)-1-piperazinyl]-], the minimal effective dose in series [2] is over 3 mg/kg. This compound yielded an IC50 in series [1] of 0.24 nM.

On to `O=C1CCN2C(=C1C(=O)Nc1ccccc1F)Nc1c(N3CCOCC3)cccc12` [Compound 3], for which the ED50 in series [3] (setting [5]) is over 1 mg/kg; in series [3] (setting [4]) it was 3 mg/kg. In addition, the minimal effective dose in series [2] was over 10 mg/kg. The same compound returned an IC50 in series [1] of 1.05 nM.

`O=C1CCN2C(=C1C(=O)Nc1c(F)cccc1F)Nc1c(N3CCOCC3)cccc12` [Compound 4]: the ED50 in series [3] (setting [5]) is under 1 mg/kg; in series [3] (setting [4]), under 3 mg/kg. For the same compound, the minimal effective dose in series [2] was about 0.1 mg/kg. In series [1], the IC50 is 0.23 nM.

On to `COc1cccc(NC(=O)C2=C3Nc4c(N5CCOCC5)cccc4N3CCC2=O)c1` [Compound 8], for which the minimal effective dose in series [2] is over 10 mg/kg. Moreover, the IC50 in series [1] was 2.4 nM.

On to `COc1ccccc1N1CCN(c2cccc3c2NC2=C(C(=O)Nc4ccccc4F)C(=O)CCN23)CC1` [Compound 6], for which the minimal effective dose in series [2] is over 10 mg/kg. The compound also had an IC50 in series [1] of about 1000 nM.

Consider `O=C1CCN2C(=C1C(=O)Nc1ccccc1F)Nc1c(N3CCSCC3)cccc12` [Compound 14], for which the minimal effective dose in series [2] is about 3 mg/kg. Moreover, the IC50 in series [1] was found to be 8.43 nM.

For the compound `CN1C2=C(C(=O)Nc3ccccc3F)C(=O)CCN2c2cccc(N3CCC4(CC3)OCCO4)c21` [Compound 21, Pyrido[1,2-a]benzimidazole-4-carboxamide, N-2-fluorophenyl-1,2,3-trihydro-3-oxo-5-methyl-6-[8-(1,4-dioxa-8-azaspiro[4,6]decanyl)]-], the minimal effective dose in series [2] is at most 0.3 mg/kg. In series [1], the IC50 is 0.13 nM.

On to `COc1ccccc1N1CCN(c2cccc3c2NC2=C(C(=O)Nc4c(F)cccc4F)C(=O)CCN23)CC1` [Compound 5], for which, in series [2], the minimal effective dose was over 10 mg/kg. In series [1], the IC50 is under 100 nM.

As for `O=C1CCN2C(=C1C(=O)Nc1c(F)cccc1F)Nc1c2cccc1-n1ccnc1` [Compound 1], the figures for the ED50 in series [3] (setting [5]) and in series [3] (setting [4]) were at most 1 mg/kg and about 10 mg/kg, respectively. Also, in series [1], the IC50 was determined as 0.66 nM.

Take `CN1C2=C(C(=O)Nc3ccccc3F)C(=O)CCN2c2cccc(N3CCSCC3)c21` [Compound 15]: in series [2], the minimal effective dose turned out to be 1 mg/kg. This compound also yielded a concentration for half-maximal inhibition (IC50) in series [1] of 0.23 nM.

Turning to `O=C1CCN2C(=C1C(=O)Nc1ccccc1F)Nc1c(N3CCCCC3)cccc12` [Compound 9], in series [2], the minimal effective dose is at most 3 mg/kg. For the same compound, the IC50 in series [1] came to 69.5 nM.

Take `O=C1CCN2C(=C1C(=O)Nc1nccs1)Nc1c2cccc1-n1ccnc1` [Compound 17]: the minimal effective dose in series [2] is over 3 mg/kg. Also, the IC50 in series [1] was 160 nM.

On to `O=C1CCN2C(=C1C(=O)Nc1ccccc1F)Nc1c(N3CCC4(CC3)OCCO4)cccc12` [Compound 20, Pyrido[1,2-a]benzimidazole-4-carboxamide, N-2-fluorophenyl-1,2,3,5-tetrahydro-3-oxo-6-[8-(1,4-dioxa-8-azaspiro[4,5]decanyl)]-], for which the ED50 in series [3] (setting [4]) is 0.83 mg/kg. Moreover, the minimal effective dose in series [2] is 3 mg/kg. In series [1], this compound gave an IC50 of 1.11 nM.

Turning to `O=C1CCN2C(=C1C(=O)Nc1ccccc1F)Nc1c2cccc1-n1ccnc1` [Compound 2, Pyrido[1,2-a]benzimidazole-4-carboxamide, N-2-fluorophenyl-1,2,3,5-tetrahydro-3-oxo-6-(1-imidazolyl)-], the values for the ED50 in series [3] (setting [5]) and in series [3] (setting [4]) were 1 mg/kg and about 5 mg/kg, respectively. Moreover, the minimal effective dose in series [2] was over 10 mg/kg. In series [1], this compound returned a half-maximal inhibitory concentration (IC50) of 3.48 nM.

The values are drawn from patent US6358946B1, “C-6 ring-substituted pyrido[1,2-a]benzimidazole derivatives useful in treating central nervous system disorders” (Ortho-McNeil Pharmaceutical, Inc., priority 1999, dated 2002).
